Test results taken from patent US20100056636A1, “N-Substituted-P-Menthane-3-Carboxamide and Uses Thereof” (priority 2006, published 2010).
Values belong to the molecule of their own block, whether it stands above or below them.

Experiments:
[1] = test system: panel of flavourists; assay: Comparative sensorial evaluation: aqueous solutions tasted by a panel of flavourists; type: in vivo, human
Experimental: Four aqueous solutions were prepared: A. […] 20 ppm WS-3 dissolved in solution A; and D. 2 ppm WS-3 dissolved in solution A. These solutions were tasted and evaluated by a panel of flavourists. […]

[2] = test system: panel of experienced flavourists; assay: Hard boiled sweets containing cold receptor stimulant, evaluated by a panel of experienced flavourists; type: in vivo, human; conditions: for strength of products A, B and C relative to each other: hard boiled sweets: A 50 ppm WS-3, B 5 ppm example 1, C 2.5 ppm example 2
Experimental: The sweets were prepared according to the following procedure. Sugar, water and glucose syrup are mixed and boiled till 146° C. The mix is cooled to 120° C., the cold receptor stimulant is added and carefully mixed in. The mix is poured on a cooling table and folded in and molded on a roller.
The sweets prepared were evaluated by a panel of experienced flavourists.

[3] = test system: small group of panelists; assay: Panel tasting of aqueous solutions: cooling intensity matched to a solution of menthol at 2 ppm; type: in vivo, human; conditions: tasted
[4] = cited from earlier work

- strength of products A, B and C relative to each other [2]: comparable
Molecule: CC1CCC(C(C)C)C(C(=O)NCC(O)c2ccccc2)C1 (stereo not shown) [Example 1, 2-isopropyl-5-methyl-cyclohexanecarboxylic acid (2-hydroxy-2-phenylethyl)-amide]
- sensory description of solution ([1]; Example 3, solution B: 2 ppm product of example 1 dissolved in 20 ppm menthol aqueous solution): “high initial cooling burst”, “long-lasting cooling”, “cold perception in whole mouth”, “some hotness”
- strength of solution B relative to solution D ([1]; Example 3: 2 ppm product of example 1 versus 2 ppm WS-3, both in 20 ppm menthol solution): much stronger
- strength of solution B relative to solution C ([1]; Example 3: 2 ppm product of example 1 versus 20 ppm WS-3, both in 20 ppm menthol solution): comparable strength
- location of effect and aftertaste ([2]; Product B: 5 ppm product prepared in example 1): in the whole mouth and has a tingling-cool aftertaste
- sensory description of hard boiled sweet ([2]; Product B: 5 ppm product prepared in example 1, A = 50 ppm WS-3): “giving a cold sensation which is not irritating” and “much more longlasting than A”
- Concentration with cooling intensity similar to or slightly higher than that of a solution of menthol at 2 ppm [3]: 0.005 ppm

- strength of products A, B and C relative to each other [2]: comparable
Molecule: CC1CCC(C(C)C)C(C(=O)NCCc2ccccc2)C1 (stereo not shown) [Example 2, 2-isopropyl-5-methyl-cyclohexanecarboxylic acid phenylethyl-amide]
- sensory description of solution ([1]; Example 4, solution B: 1 ppm product of example 2 dissolved in 20 ppm menthol aqueous solution): “cold perception with a pain sensation”, “aggressive, long-lasting cooling”, “almost noxious cold”, “slightly tingling”
- strength of solution B relative to solution D ([1]; Example 4: 1 ppm product of example 2 versus 2 ppm WS-3, both in 20 ppm menthol solution): much stronger
- strength of solution B relative to solution C ([1]; Example 4: 1 ppm product of example 2 versus 20 ppm WS-3, both in 20 ppm menthol solution): comparable strength
- sensory description of hard boiled sweet ([2]; Product C: 2.5 ppm product prepared in example 2): “slow release cooling”, “giving a cold effect in the whole mouth”, “tingling pain sensation enhancing the cooling effect and “very longlasting”
- Concentration with cooling intensity similar to or slightly higher than that of a solution of menthol at 2 ppm [3]: 0.2 ppm

Molecule: CCOc1ccccc1CCNC(=O)C1CC(C)CCC1C(C)C (stereo not shown) [Example 5, N-(2-ethoxyphenethyl)-2-isopropyl-5-methylcyclohexane-carboxamide]
- Concentration with cooling intensity similar to or slightly higher than that of a solution of menthol at 2 ppm [3]: 0.002 ppm

Molecule: CC1CCC(C(C)C)C(C(=O)N[C@H]2C[C@H]2c2ccccc2)C1 (stereo partly drawn) [Example 6, 2-isopropyl-5-methyl-N-((1S,2S)-2-phenylcyclopropyl)-cyclohexanecarboxamide]
- Concentration with cooling intensity similar to or slightly higher than that of a solution of menthol at 2 ppm [3]: 0.1 ppm

- strength of products A, B and C relative to each other [2]: comparable
Molecule: CCNC(=O)C1CC(C)CCC1C(C)C (stereo not shown) [WS-3, N-Ethyl-p-menthane-3-carboxamide, reference compound]
- sensory description of solution, compared with solution B ([1]; Example 3, solution C: 20 ppm WS-3 in 20 ppm menthol solution, B = 2 ppm product of example 1 in 20 ppm menthol): “more neutral cold perception than B”, “less aggressive cooling than B”, “less long-lasting cooling than B”
- sensory description of solution, compared with solution B ([1]; Example 3, solution D: 2 ppm WS-3 in 20 ppm menthol solution, B = 2 ppm product of example 1 in 20 ppm menthol): “more neutral cold perception than B”, “less aggressive cooling than B”, “less long-lasting cooling than B”
- sensory description of solution, compared with solution B ([1]; Example 4, solution C: 20 ppm WS-3 in 20 ppm menthol solution, B = 1 ppm product of example 2 in 20 ppm menthol): “more neutral cold perception than B”, “less aggressive cooling than B”, “less long-lasting cooling than B”
- sensory description of solution, compared with solution B ([1]; Example 4, solution D: 2 ppm WS-3 in 20 ppm menthol solution, B = 1 ppm product of example 2 in 20 ppm menthol): “more neutral cold perception than B”, “less aggressive cooling than B”, “less long-lasting cooling than B”
- sensory description of hard boiled sweet ([2]; Product A (control): 50 ppm WS-3): “giving coolness and a cold perception” and “having an immediate cooling effect” and “not longlasting”
- feeling in the throat ([2]; Product A: hard boiled sweet, dosage of 50 ppm WS-3): irritating feeling in the throat
- Concentration with cooling intensity similar to or slightly higher than that of a solution of menthol at 2 ppm [3]: 1.5 ppm

Molecule: CC1CCC(C(C)C)C(O)C1 (stereo not shown) [menthol, reference compound]
- sensory description of solution ([1]; solution A: 20 ppm menthol in water): “cooling”
- Concentration with cooling intensity similar to or slightly higher than that of a solution of menthol at 2 ppm [3]: 2.0 ppm

Molecule: Ethyl 3-(p-menthane-3-carboxamido)acetate [(1R,3R,4S)-WS-5]
- perceived cooling relative to WS-3 ([4]; reported in US Patent Application No. 20050222256): 2.5-3.0 times

Molecule: Ethyl 3-(p-menthane-3-carboxamido)acetate [WS-5]
- coolness relative to WS-3 ([4]; known): significantly cooler than WS-3

Molecule: N-(3,4-dimethylphenethyl)-2-isopropyl-5-ethylcyclo-hexanecarboxamide [Example 7]
- Concentration with cooling intensity similar to or slightly higher than that of a solution of menthol at 2 ppm [3]: 0.002 ppm
